This note sets out measurements from patent publication US7192906B2, “Substituted pyrazole derivatives, production process thereof, and herbicide compositions containing the derivatives” (SDS Biotech K.K., priority 2001, dated 2007).

What all share (assay type): in vivo
The test system of data set [1] is Digitaria adscendens. As to the kind of experiment: Test Example 1 upland field foliage treatment. The note with it: Table 4, upland field foliage treatment, index 0-5. The method in brief:
(§1)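 Scored 0–5 (0: under 10%, 5: 90% or more effect or phytotoxicity) on day 21 after treatment; plants sown in upland soil received a leaf-surface spray 14 days post-sowing of diluted wettable powder delivering 1 kg active ingredient/ha.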

The subject of data set [2] is Setaria viridis. The experiment in a line: Test Example 1 upland field foliage treatment. As to conditions: Table 4, upland field foliage treatment, index 0-5. The method in brief: as §1
For data set [3], the system named is Chenopodium album. The experiment in a line: Test Example 1 upland field foliage treatment. The note with it: Table 4, upland field foliage treatment, index 0-5. In outline:
as §1

For data set [4], the system named is Stellaria media. As to the kind of experiment: Test Example 1 upland field foliage treatment. As to conditions: Table 4, upland field foliage treatment, index 0-5. The method in brief:
as §1

In another data set the test system is Scirpus juncoides. As to the kind of experiment: Test Example 3 paddy field treatment. The note with it: active ingredient 1 kg per hectare, index 0-5. The method in brief: (§2)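 Scoring used a 0–5 scale of herbicidal effect or phytotoxicity, from <10% to ≥90%, taken 21 days after treatment. Treatment was 1 kg a.i./ha as diluted wettable powder dripped onto 4 cm-deep flooded pots sown with the weeds, 10 days after transplanting two-leaf Koshihikari rice.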

For the next data set, the system named is Echinochloa crusgalli. As to the kind of experiment: Test Example 3 paddy field treatment. The note with it: active ingredient 1 kg per hectare, index 0-5. The method in brief:
as §2

A further data set has as its system Monochoria vaginalis. As to the kind of experiment: Test Example 3 paddy field treatment. The note with it: active ingredient 1 kg per hectare, index 0-5. In outline:
as §2

The test system of a further data set is Ammannia multiflora. The experiment in a line: Test Example 3 paddy field treatment. The note with it: active ingredient 1 kg per hectare, index 0-5. In outline:
as §2

In data set [5] the test system is soybean (Glycine max). As to the kind of experiment: Test Example 2 upland soil treatment, crop phytotoxicity. As to conditions: Table 5, upland soil treatment, index 0-5. In outline: (§3)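 Pre-emergence soil treatment: seeds sown in upland soil in pots and covered with about 1 cm soil. Next day, a water-diluted wettable powder was sprayed evenly on the soil surface at 1 kg active ingredient per hectare. Weed control or crop injury was scored 0–5 (10% to ≥90% bands) 21 days later.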

For data set [6], the system named is wheat (Triticum aestivum). The description is as above. As to conditions: Table 5, upland soil treatment, index 0-5. The method in brief: as §3
For data set [7], the system named is Digitaria adscendens. As to the kind of experiment: Test Example 2 upland soil treatment. As to conditions: Table 5, upland soil treatment, index 0-5. The method in brief: as §3
Data set [8] has as its system Setaria viridis. As to the kind of experiment: Test Example 2 upland soil treatment. The note with it: Table 5, upland soil treatment, index 0-5. In outline:
as §3

Data set [9] has as its system Chenopodium album. The experiment in a line: Test Example 2 upland soil treatment. As to conditions: Table 5, upland soil treatment, index 0-5. The method in brief:
as §3

For data set [10], the system named is Stellaria media. The experiment in a line: Test Example 2 upland soil treatment. The note with it: Table 5, upland soil treatment, index 0-5. In outline:
as §3

Another data set concerns Rice (Oryza sativa). The experiment in a line: Test Example 3 paddy field treatment, crop phytotoxicity. The note with it: active ingredient 1 kg per hectare, index 0-5; for Herbicidal activity (phytotoxicity) OS: Table 6, paddy field treatment, transplanted rice, 21st day after dropping. In outline: as §2
The subject of data set [11] is soybean (Glycine max). The experiment in a line: Test Example 1 upland field foliage treatment, crop phytotoxicity. The note with it: Table 4, upland field foliage treatment, index 0-5. The method in brief:
as §1

The subject of data set [12] is wheat (Triticum aestivum). The data set is described as above. As to conditions: Table 4, upland field foliage treatment, index 0-5. In outline: as §1
The mark [13] stands for this setting: Table 6, paddy field treatment, 21st day after dropping.
Setting [14] is: paddy field treatment, wettable powder, 21st day after the dropping.

Take `C=CCON=C(Cn1cc(C)c(-c2ccccc2)n1)C(=O)NC` [Compound 105]: the “Herbicidal activity DA: Digitaria adscendens” value (“Herbicidal activity DA” below) in the data set with Digitaria adscendens [1] was 5 (herbicidal effect of not less than 90%, or phytotoxicity of 90% or more); in the data set with Digitaria adscendens [7] it was 4 (herbicidal effect of not less than 70% and less than 90%, or phytotoxicity of 70% or more and less than 90%). Moreover, the “Herbicidal activity SV: Setaria viridis” value in the data set on Setaria viridis [2] was 5 (herbicidal effect of not less than 90%, or phytotoxicity of 90% or more); with Setaria viridis [8] it was 4 (herbicidal effect of not less than 70% and less than 90%, or phytotoxicity of 70% or more and less than 90%). In addition, the “Herbicidal activity CA: Chenopodium album” value (from here on “Herbicidal activity CA”) with Chenopodium album [3] was 5 (herbicidal effect of not less than 90%, or phytotoxicity of 90% or more); in the data set with Chenopodium album [9], 4 (herbicidal effect of not less than 70% and less than 90%, or phytotoxicity of 70% or more and less than 90%). The “Herbicidal activity SM: Stellaria media” value with Stellaria media [4] is 5 (herbicidal effect of not less than 90%, or phytotoxicity of 90% or more); in the data set on Stellaria media [10], 4 (herbicidal effect of not less than 70% and less than 90%, or phytotoxicity of 70% or more and less than 90%). Besides, in the data set with Scirpus juncoides (setting [13]), the “Herbicidal activity SJ” value is 4 (herbicidal effect of not less than 70% and less than 90%, or phytotoxicity of 70% or more and less than 90%). The “Herbicidal activity EC” value in the data set on Echinochloa crusgalli (setting [13]) is 4 (herbicidal effect of not less than 70% and less than 90%, or phytotoxicity of 70% or more and less than 90%). In addition, in the data set with Monochoria vaginalis (setting [13]), the “Herbicidal activity MV” value is 5 (herbicidal effect of not less than 90%, or phytotoxicity of 90% or more). For the same molecule, the “Herbicidal activity AM” value in the data set with Ammannia multiflora (setting [13]) is given as 5 (herbicidal effect of not less than 90%, or phytotoxicity of 90% or more). In addition, the “Herbicidal activity (phytotoxicity) GM: Soybean (Glycine max)” value (“Herbicidal activity (phytotoxicity) GM” for short) was 0 (herbicidal effect of not less than 0% and less than 10%, or phytotoxicity of 0% or more and less than 10%) in the data set with soybean (Glycine max) [5]; 0 (herbicidal effect of not less than 0% and less than 10%, or phytotoxicity of 0% or more and less than 10%) with soybean (Glycine max) [11]. In addition, the “Herbicidal activity (phytotoxicity) TA: Wheat (Triticum aestivum)” value (“Herbicidal activity (phytotoxicity) TA” for short) in data set [6] was 0 (herbicidal effect of not less than 0% and less than 10%, or phytotoxicity of 0% or more and less than 10%); in [12], 0 (herbicidal effect of not less than 0% and less than 10%, or phytotoxicity of 0% or more and less than 10%). Moreover, in the data set with Rice (Oryza sativa), the “Herbicidal activity (phytotoxicity) OS” value was 0 (herbicidal effect of not less than 0% and less than 10%, or phytotoxicity of 0% or more and less than 10%).
As to `CNC(=O)C(Cn1cc(C)c(-c2ccc(F)cc2)n1)=NOC` [Compound 44], the “Herbicidal activity DA” value in the data set with Digitaria adscendens [1] is listed as 5 (herbicidal effect of not less than 90%, or phytotoxicity of 90% or more); in the data set on Digitaria adscendens [7] it was 5 (herbicidal effect of not less than 90%, or phytotoxicity of 90% or more). For the same molecule, the “Herbicidal activity SV: Setaria viridis” value with Setaria viridis [2] is given as 5 (herbicidal effect of not less than 90%, or phytotoxicity of 90% or more); in the data set on Setaria viridis [8], 5 (herbicidal effect of not less than 90%, or phytotoxicity of 90% or more). Moreover, the “Herbicidal activity CA” value was 5 (herbicidal effect of not less than 90%, or phytotoxicity of 90% or more) with Chenopodium album [3] and 5 (herbicidal effect of not less than 90%, or phytotoxicity of 90% or more) in the data set on Chenopodium album [9]. Moreover, the “Herbicidal activity SM: Stellaria media” value is given as 5 (herbicidal effect of not less than 90%, or phytotoxicity of 90% or more) with Stellaria media [4] and 5 (herbicidal effect of not less than 90%, or phytotoxicity of 90% or more) in the data set with Stellaria media [10]. Moreover, the “Herbicidal activity SJ” value with Scirpus juncoides (setting [14]) is given as 5 (herbicidal effect of not less than 90%, or phytotoxicity of 90% or more). For the same molecule, the “Herbicidal activity EC” value with Echinochloa crusgalli (setting [14]) is on record as 5 (herbicidal effect of not less than 90%, or phytotoxicity of 90% or more). In addition, in the data set on Monochoria vaginalis (setting [14]), the “Herbicidal activity MV” value was 5 (herbicidal effect of not less than 90%, or phytotoxicity of 90% or more). Moreover, the “Herbicidal activity AM” value in the data set on Ammannia multiflora (setting [14]) is reported as 5 (herbicidal effect of not less than 90%, or phytotoxicity of 90% or more). Also, the “Herbicidal activity (phytotoxicity) GM” value in the data set on soybean (Glycine max) [5] is 0 (herbicidal effect of not less than 0% and less than 10%, or phytotoxicity of 0% or more and less than 10%); in the data set with soybean (Glycine max) [11] it was 0 (herbicidal effect of not less than 0% and less than 10%, or phytotoxicity of 0% or more and less than 10%). In addition, the “Herbicidal activity (phytotoxicity) TA” value in data set [6] was 0 (herbicidal effect of not less than 0% and less than 10%, or phytotoxicity of 0% or more and less than 10%); in data set [12], 0 (herbicidal effect of not less than 0% and less than 10%, or phytotoxicity of 0% or more and less than 10%). The “Herbicidal activity OS (phytotoxicity to rice)” value in the data set on Rice (Oryza sativa) (paddy field treatment, transplanted rice Koshihikari, wettable powder, 21st day after the dropping) was 1 (herbicidal effect of not less than 10% and less than 30%, or phytotoxicity of 10% or more and less than 30%).
For the molecule `CNC(=O)C(Cn1cc(C)c(-c2ccc(F)cc2F)n1)=NOC` [Compound 56], the “Herbicidal activity DA” value in the data set on Digitaria adscendens [1] is reported as 5 (herbicidal effect of not less than 90%, or phytotoxicity of 90% or more); with Digitaria adscendens [7], 5 (herbicidal effect of not less than 90%, or phytotoxicity of 90% or more). Besides, the “Herbicidal activity SV: Setaria viridis” value with Setaria viridis [2] is 5 (herbicidal effect of not less than 90%, or phytotoxicity of 90% or more); in the data set on Setaria viridis [8], 5 (herbicidal effect of not less than 90%, or phytotoxicity of 90% or more). The “Herbicidal activity CA” value in the data set on Chenopodium album [3] is reported as 5 (herbicidal effect of not less than 90%, or phytotoxicity of 90% or more); in the data set with Chenopodium album [9] it was 5 (herbicidal effect of not less than 90%, or phytotoxicity of 90% or more). Moreover, the “Herbicidal activity SM: Stellaria media” value is reported as 5 (herbicidal effect of not less than 90%, or phytotoxicity of 90% or more) with Stellaria media [4] and 5 (herbicidal effect of not less than 90%, or phytotoxicity of 90% or more) with Stellaria media [10]. The “Herbicidal activity SJ” value with Scirpus juncoides (setting [13]) was 5 (herbicidal effect of not less than 90%, or phytotoxicity of 90% or more). Also, in the data set with Echinochloa crusgalli (setting [13]), the “Herbicidal activity EC” value was 5 (herbicidal effect of not less than 90%, or phytotoxicity of 90% or more). The “Herbicidal activity MV” value in the data set on Monochoria vaginalis (setting [13]) is on record as 5 (herbicidal effect of not less than 90%, or phytotoxicity of 90% or more). Moreover, in the data set on Ammannia multiflora (setting [13]), the “Herbicidal activity AM” value was 5 (herbicidal effect of not less than 90%, or phytotoxicity of 90% or more). Besides, the “Herbicidal activity (phytotoxicity) GM” value is 1 (herbicidal effect of not less than 10% and less than 30%, or phytotoxicity of 10% or more and less than 30%) with soybean (Glycine max) [5]; 0 (herbicidal effect of not less than 0% and less than 10%, or phytotoxicity of 0% or more and less than 10%) in the data set on soybean (Glycine max) [11]. The “Herbicidal activity (phytotoxicity) TA” value was 0 (herbicidal effect of not less than 0% and less than 10%, or phytotoxicity of 0% or more and less than 10%) in [6]; 0 (herbicidal effect of not less than 0% and less than 10%, or phytotoxicity of 0% or more and less than 10%) in data set [12]. Further, the “Herbicidal activity (phytotoxicity) OS” value in the data set on Rice (Oryza sativa) was 0 (herbicidal effect of not less than 0% and less than 10%, or phytotoxicity of 0% or more and less than 10%).
